Data as given in patent US20050089524A1, “Compositions and compounds for use as molecular adjuvant for a nicotine vaccine” (priority 2002, published 2005).
Square brackets hold non-standard residues; d marks the D form. Ends that are not written are not given here. Peptide text beside a SMILES is read from it.

Tests used:
human umbilical artery = assay: Smooth muscle contraction of human umbilical artery; type: cell-based; conditions: for EC50: concentration resulting in 50% maximum contraction; for pD2 ± SE: −log EC50 (M), mean ± SE, n 3
Description: (§1) Pharmacologic assays. […] Statistical analysis of the values obtained from pharmacologic assays was performed using one-way analysis of variance (ANOVA).

C5aR = target: T1, C5aR (Homo sapiens, UniProt P21730); assay: Binding affinity for C5aRs on human PMNs (125I-C5a competition)
T1 construct: endogenous in cells; host or cells: intact human PMNs (polymorphonuclear leukocytes)
T1 sequence (P21730 1-350): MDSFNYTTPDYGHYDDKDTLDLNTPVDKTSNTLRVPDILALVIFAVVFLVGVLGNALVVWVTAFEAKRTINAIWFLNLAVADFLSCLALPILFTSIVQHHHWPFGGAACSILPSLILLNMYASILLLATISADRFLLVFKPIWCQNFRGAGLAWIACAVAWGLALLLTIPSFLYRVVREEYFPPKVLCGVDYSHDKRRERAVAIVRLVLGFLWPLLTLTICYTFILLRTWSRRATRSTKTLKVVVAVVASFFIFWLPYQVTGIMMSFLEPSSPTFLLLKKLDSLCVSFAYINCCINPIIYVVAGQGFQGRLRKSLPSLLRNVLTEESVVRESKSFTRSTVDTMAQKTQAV
Description: Pharmacologic assays. C5a-like agonistic activity was assessed by the ability of the peptides to induce smooth muscle contraction of human umbilical artery and […] from human PMNs according to previously published methods (Sanderson et al., 1994, supra; Sanderson et al., J. Med. Chem. 38, 3669, 1995; Finch et al., J. Med. Chem. 40, 877, 1997). Full concentration-response curves were generated for individual peptides and natural C5a in each assay and the EC50 values (the concentration of peptide producing 50% of the maximal response to each peptide) were calculated. pD2 transforms [−log EC50 (M)] were calculated for each concentration-response curve and reported as the mean±SE. Peptide binding affinity to the C5aR was evaluated on intact human PMNs by a competition assay using ^125I-C5a according to previously described methods (Sanderson et al., 1995, supra; Finch et al., 1997, supra). Statistical analysis of the values obtained from pharmacologic assays was performed using one-way analysis of variance (ANOVA).

human PMNs = assay: MPO release from human PMNs; type: cell-based; conditions: for EC50: concentration resulting in 50% maximum release of myeloperoxidase; for pD2 ± SE: −log EC50 (M), mean ± SE, n 3
Description: as §1

[1] = system: 51Cr-labeled P815S (HBsAg transfectant) target cells; assay: HBsAg-specific CTL response of immunized mice (51Cr-release assay); type: in vivo, BALB/c mice; conditions: for antigen-specific CTL response: three s.c. injections of 50 μg at 21 day intervals, no added adjuvant; for % Specific Lysis: s.c. in PBS, boost day 21, spleen cells day 42
MUC1 epitope peptide = assay: Serum antibody response to MUC1 epitope in immunized mice (RIA); type: in vivo; conditions: C57Bl6 and Balb/c mice, 100 μg i.p. with RIBI adjuvant, three immunizations, sera at 6 weeks
From the text: iii. Animal Models. The strains of mice used for this example were inbred females 6 to 12 week old C57Bl6(H-2^b) and Balb/c (H-2^d), which were obtained from Jackson labs (Bar Harbor, Me.). […] The MUC1 peptide selected for these studies contained a motif that may bind to the H-2K^b molecule of the C57Bl6 mice; therefore, a strain of mouse that lacked this class I molecule binding motif (Balb/c) was also studied to determine the relative contribution of the class I binding motif to the antigen presentation properties of these peptides.
iv. Immunization protocol. Preimmune sera were obtained from mice, which were subsequently immunized intraperitoneally with 100 μg of the indicated peptide with RIBI adjuvant (MPL+TDM+CWS) (Sigma Immunochemicals). Animals were boosted twice at two week intervals using the same injection procedure. Sera were obtained following three immunizations (at 6 weeks).
v. Analysis of serum antibody responses. For radioimmunoassay (RIA), anti-peptide antibodies were determined, before and at different time points after immunization, in 96-well microtiter plates (Dynatech Laboratories, Inc.). Plates were coated with 50 μl of a 100 μg/ml appropriate peptide in phosphate-buffered saline (PBS) pH 7.4 solution overnight at 4° C. The wells were blocked by incubation with 5% dry milk in PBS pH 7.4 for at least two hours. Anti-peptide antibody titers were determined using serial dilutions of sera. The sera were diluted with PBS containing 0.05% Tween-20, pH 7.4 (washing buffer) and 50 μl of each dilution was incubated at 37° C. for 1 hour. The wells were then drained, washed 4 times with PBS-Tween and 50 μl of ^125I-goat anti-mouse Ab (1-2×10^4 cpm/well) was added and incubated for 1 hr at 25° C. After washing, specific radioactivity was recorded in a gamma counter (1272 CliniGamma, LKB).
vi. Experimental groups. […]

MUC1 peptide = assay: MUC1-specific antibody isotype titers in immunized mice (ELISA); type: in vivo; conditions: for MUC1 specific Ab titer, IgA / MUC1 specific Ab titer, IgG1 / MUC1 specific Ab titer, IgG2a / MUC1 specific Ab titer, IgG2b / MUC1 specific Ab titer, IgG3 / MUC1 specific Ab titer, IgM: five C57BL6 mice, mean titer of responders, sera screened against MUC1 peptide

## CC[C@H](C)[C@H](N)C(=O)N1CCC[C@H]1C(=O)N[C@@H](CCC(N)=O)C(=O)N[C@@H](CO)C(=O)N[C@@H](CC(C)C)C(=O)N[C@@H](CC(=O)O)C(=O)N[C@@H](CO)C(=O)N[C@@H](Cc1c[nH]c2ccccc12)C(=O)N[C@@H](Cc1c[nH]c2ccccc12)C(=O)N[C@H](C(=O)N[C@@H](CO)C(=O)N[C@@H](CC(C)C)C(=O)N[C@@H](CCCNC(=N)N)C(=O)N[C@@H](CCCNC(=N)N)C(=O)N[C@@H](Cc1ccc(O)cc1)C(=O)N[C@@H](CO)C(=O)N[C@@H](Cc1ccccc1)C(=O)N[C@@H](CCCCN)C(=O)N1CCC[C@H]1C(=O)N[C@@H](CCSC)C(=O)N1CCC[C@H]1C(=O)N[C@@H](CC(C)C)C(=O)N[C@H](C)C(=O)N[C@@H](CCCNC(=N)N)C(=O)NCC(=O)O)[C@@H](C)O (H-IPQSLDSWWTSLRRYSFKPMPL[dA]RG-OH; N-terminus and C-terminus assumed)
Human umbilical artery
  EC50: 6.78 µM
  pD2 ± SE: 5.17 ± 0.13
C5aR
  EC50: 17 µM
  IC50: 17 µM
Human PMNs
  EC50: 2.56 µM
  pD2 ± SE: 5.59 ± 0.28

## CC[C@H](C)[C@H](N)C(=O)N1CCC[C@H]1C(=O)N[C@@H](CCC(N)=O)C(=O)N[C@@H](CO)C(=O)N[C@@H](CC(C)C)C(=O)N[C@@H](CC(=O)O)C(=O)N[C@@H](CO)C(=O)N[C@@H](Cc1c[nH]c2ccccc12)C(=O)N[C@@H](Cc1c[nH]c2ccccc12)C(=O)N[C@H](C(=O)N[C@@H](CO)C(=O)N[C@@H](CC(C)C)C(=O)N[C@@H](CCCNC(=N)N)C(=O)N[C@H](C(=O)N[C@@H](CCCNC(=N)N)C(=O)N[C@@H](CCCNC(=N)N)C(=O)N[C@@H](Cc1ccc(O)cc1)C(=O)N[C@@H](CO)C(=O)N[C@@H](Cc1ccccc1)C(=O)N[C@@H](CCCCN)C(=O)N1CCC[C@H]1C(=O)N[C@@H](CCSC)C(=O)N1CCC[C@H]1C(=O)N[C@@H](CC(C)C)C(=O)N[C@H](C)C(=O)N[C@@H](CCCNC(=N)N)C(=O)O)C(C)C)[C@@H](C)O (H-IPQSLDSWWTSLRVRRYSFKPMPL[dA]R-OH; N-terminus assumed)
Human umbilical artery
  EC50: 0.18 µM
  pD2 ± SE: 6.67 ± 0.22
[1]
  antigen-specific CTL response: able to elicit a specific CTL response that was significantly above background levels
C5aR
  EC50: 0.529 µM
  IC50: 0.525 µM
Human PMNs
  EC50: 2.15 µM
  pD2 ± SE: 5.61 ± 0.19

## CC[C@H](C)[C@H](N)C(=O)N1CCC[C@H]1C(=O)N[C@@H](CCC(N)=O)C(=O)N[C@@H](CO)C(=O)N[C@@H](CC(C)C)C(=O)N[C@@H](CC(=O)O)C(=O)N[C@@H](CO)C(=O)N[C@@H](Cc1c[nH]c2ccccc12)C(=O)N[C@@H](Cc1c[nH]c2ccccc12)C(=O)N[C@H](C(=O)N[C@@H](CO)C(=O)N[C@@H](CC(C)C)C(=O)N[C@@H](Cc1ccc(O)cc1)C(=O)N[C@@H](CO)C(=O)N[C@@H](Cc1ccccc1)C(=O)N[C@@H](CCCCN)C(=O)N1CCC[C@H]1C(=O)N[C@@H](CCSC)C(=O)N1CCC[C@H]1C(=O)N[C@@H](CC(C)C)C(=O)N[C@H](C)C(=O)N[C@@H](CCCNC(=N)N)C(=O)O)[C@@H](C)O (H-IPQSLDSWWTSLYSFKPMPL[dA]R-OH; N-terminus assumed)
Human umbilical artery
  EC50: 0.21 µM
  pD2 ± SE: 6.68 ± 0.17
[1]; Effector:Target Ratio 6.25:1
  % Specific Lysis: 1%
[1]; Effector:Target Ratio 12.5:1
  % Specific Lysis: 2%
[1]; Effector:Target Ratio 25:1
  % Specific Lysis: 4%
[1]; Effector:Target Ratio 50:1
  % Specific Lysis: 6%
[1]
  antigen-specific CTL response: lack of a CTL response
C5aR
  EC50: 3.69 µM
  IC50: 3.72 µM
Human PMNs
  EC50: 1.58 µM
  pD2 ± SE: 5.80 ± 0.04

## CC[C@H](C)[C@H](NC(=O)[C@H](CCCNC(=N)N)NC(=O)[C@H](CCCNC(=N)N)NC(=O)[C@H](CCCNC(=N)N)NC(=O)[C@@H](C)NC(=O)[C@H](CC(C)C)NC(=O)[C@@H]1CCCN1C(=O)[C@H](CCSC)NC(=O)[C@@H]1CCCN1C(=O)[C@H](CCCCN)NC(=O)[C@H](Cc1ccccc1)NC(=O)[C@H](CO)NC(=O)[C@@H](N)Cc1ccc(O)cc1)C(=O)N1CCC[C@H]1C(=O)N[C@@H](CCC(N)=O)C(=O)N[C@@H](CO)C(=O)N[C@@H](CC(C)C)C(=O)N[C@@H](CC(=O)O)C(=O)N[C@@H](CO)C(=O)N[C@@H](Cc1c[nH]c2ccccc12)C(=O)N[C@@H](Cc1c[nH]c2ccccc12)C(=O)N[C@H](C(=O)N[C@@H](CO)C(=O)N[C@@H](CC(C)C)C(=O)O)[C@@H](C)O (H-YSFKPMPL[dA]RRRIPQSLDSWWTSL-OH; N-terminus and C-terminus assumed)
Human umbilical artery
  EC50: 39.4 µM
  pD2 ± SE: 4.41 ± 0.06
C5aR
  EC50: 465 µM
  IC50: 468 µM
Human PMNs
  EC50: > 1000 µM
  pD2 ± SE: >3

## IPQSLDSWWTSL [free L^d MHC class I-restricted HBsAg peptide S28-39]
[1]; Effector:Target Ratio 6.25:1
  % Specific Lysis: 3%
[1]; Effector:Target Ratio 12.5:1
  % Specific Lysis: 3%
[1]; Effector:Target Ratio 25:1
  % Specific Lysis: 5%
[1]; Effector:Target Ratio 50:1
  % Specific Lysis: 7%

## IPQSLDSWWTSLRR
[1]; Effector:Target Ratio 6.25:1
  % Specific Lysis: 0%
[1]; Effector:Target Ratio 12.5:1
  % Specific Lysis: 1%
[1]; Effector:Target Ratio 25:1
  % Specific Lysis: 2%
[1]; Effector:Target Ratio 50:1
  % Specific Lysis: 2%

## YKQGGFLGL [peptide 1]
MUC1 epitope peptide
  antibody response to MUC1 epitope (RIA): no appreciable increase in antibody response

## YKQGGFLGL-KLH: MUC1 epitope conjugated to keyhole limpet hemocyanine (KLH) (also: conjugated to KLH) [reference compound]
MUC1 peptide
  MUC1 specific Ab titer, IgA: 0
  MUC1 specific Ab titer, IgG1: 100 (2/5)
  MUC1 specific Ab titer, IgG2a: 0
  MUC1 specific Ab titer, IgG2b: 0
  MUC1 specific Ab titer, IgG3: 0
  MUC1 specific Ab titer, IgM: 5010 (4/5)

## YKQGGFLGLYSFKPMPLaR [peptide 3]
MUC1 epitope peptide
  antibody response to MUC1 epitope (RIA): substantial responses were produced
MUC1 peptide
  MUC1 specific Ab titer, IgA: 0
  MUC1 specific Ab titer, IgG1: 0
  MUC1 specific Ab titer, IgG2a: 1260
  MUC1 specific Ab titer, IgG2b: 1780 (5/5)
  MUC1 specific Ab titer, IgG3: 0 (5/5)
  MUC1 specific Ab titer, IgM: 6310 (5/5)
MUC1 peptide; immunized mice, FIG. 3
  isotypes of the anti-peptide antibodies produced: IgM, IgG2a, and IgG2b
MUC1 peptide; immunized mice, FIG. 4
  specificity of the antibody response for the MUC1 epitope: includes a high percentage of antibodies that are specific for the MUC1 epitope

## YSFKPMPLaRKQGGFLGL [peptide 4]
MUC1 epitope peptide
  antibody response to MUC1 epitope (RIA): immune responses were not produced
